Results reported in ChEMBL document CHEMBL1147144, “Novel styrylpyridines as probes for SPECT imaging of amyloid plaques” (J Med Chem, 2007).

Columns and labels:
Heart [1] = assay: Biodistribution in ICR mouse heart at 5 to 10 uCi, iv after 2 mins; assay type: ADME, organism-based; conditions: in vivo
Heart [2] = assay: Biodistribution in ICR mouse heart at 5 to 10 uCi, iv after 30 mins; assay type: ADME, organism-based; conditions: in vivo, 0.5 h
Heart [3] = assay: Biodistribution in ICR mouse heart at 5 to 10 uCi, iv after 1 hr; assay type: ADME, organism-based; conditions: in vivo
Kidney [4] = assay: Biodistribution in ICR mouse kidney at 5 to 10 uCi, iv after 2 hrs; assay type: ADME, organism-based; conditions: in vivo
Spleen [5] = assay: Biodistribution in ICR mouse spleen at 5 to 10 uCi, iv after 2 mins; assay type: ADME, organism-based; conditions: in vivo
Spleen [6] = assay: Biodistribution in ICR mouse spleen at 5 to 10 uCi, iv after 30 mins; assay type: ADME, organism-based; conditions: in vivo, 0.5 h
Heart [7] = assay: Biodistribution in ICR mouse heart at 5 to 10 uCi, iv after 2 hrs; assay type: ADME, organism-based; conditions: in vivo
Muscle tissue [8] = assay: Biodistribution in ICR mouse muscle at 5 to 10 uCi, iv after 2 mins; assay type: ADME, organism-based; conditions: in vivo
Muscle tissue [9] = assay: Biodistribution in ICR mouse muscle at 5 to 10 uCi, iv after 30 mins; assay type: ADME, organism-based; conditions: in vivo, 0.5 h
Muscle tissue [10] = assay: Biodistribution in ICR mouse muscle at 5 to 10 uCi, iv after 1 hr; assay type: ADME, organism-based; conditions: in vivo
Muscle tissue [11] = assay: Biodistribution in ICR mouse muscle at 5 to 10 uCi, iv after 2 hrs; assay type: ADME, organism-based; conditions: in vivo
Lung [12] = assay: Biodistribution in ICR mouse lung at 5 to 10 uCi, iv after 2 mins; assay type: ADME, organism-based; conditions: in vivo
Lung [13] = assay: Biodistribution in ICR mouse lung at 5 to 10 uCi, iv after 30 mins; assay type: ADME, organism-based; conditions: in vivo, 0.5 h
Lung [14] = assay: Biodistribution in ICR mouse lung at 5 to 10 uCi, iv after 1 hr; assay type: ADME, organism-based; conditions: in vivo
Lung [15] = assay: Biodistribution in ICR mouse lung at 5 to 10 uCi, iv after 2 hrs; assay type: ADME, organism-based; conditions: in vivo
Kidney [16] = assay: Biodistribution in ICR mouse kidney at 5 to 10 uCi, iv after 2 mins; assay type: ADME, organism-based; conditions: in vivo
Kidney [17] = assay: Biodistribution in ICR mouse kidney at 5 to 10 uCi, iv after 30 mins; assay type: ADME, organism-based; conditions: in vivo, 0.5 h
Kidney [18] = assay: Biodistribution in ICR mouse kidney at 5 to 10 uCi, iv after 1 hr; assay type: ADME, organism-based; conditions: in vivo
Spleen [19] = assay: Biodistribution in ICR mouse spleen at 5 to 10 uCi, iv after 1 hr; assay type: ADME, organism-based; conditions: in vivo
Spleen [20] = assay: Biodistribution in ICR mouse spleen at 5 to 10 uCi, iv after 2 hrs; assay type: ADME, organism-based; conditions: in vivo
Liver [21] = assay: Biodistribution in ICR mouse liver at 5 to 10 uCi, iv after 2 mins; assay type: ADME, organism-based; conditions: in vivo
Liver [22] = assay: Biodistribution in ICR mouse liver at 5 to 10 uCi, iv after 30 mins; assay type: ADME, organism-based; conditions: in vivo, 0.5 h
Liver [23] = assay: Biodistribution in ICR mouse liver at 5 to 10 uCi, iv after 1 hr; assay type: ADME, organism-based; conditions: in vivo
Liver [24] = assay: Biodistribution in ICR mouse liver at 5 to 10 uCi, iv after 2 hrs; assay type: ADME, organism-based; conditions: in vivo
Zone of skin [25] = assay: Biodistribution in ICR mouse skin at 5 to 10 uCi, iv after 2 mins; assay type: ADME, organism-based; conditions: in vivo
Zone of skin [26] = assay: Biodistribution in ICR mouse skin at 5 to 10 uCi, iv after 30 mins; assay type: ADME, organism-based; conditions: in vivo, 0.5 h
Zone of skin [27] = assay: Biodistribution in ICR mouse skin at 5 to 10 uCi, iv after 1 hr; assay type: ADME, organism-based; conditions: in vivo
Zone of skin [28] = assay: Biodistribution in ICR mouse skin at 5 to 10 uCi, iv after 2 hrs; assay type: ADME, organism-based; conditions: in vivo
Brain [29] = assay: Biodistribution in ICR mouse brain at 5 to 10 uCi, iv after 2 mins; assay type: ADME, organism-based; conditions: in vivo
Brain [30] = assay: Biodistribution in ICR mouse brain at 5 to 10 uCi, iv after 30 mins; assay type: ADME, organism-based; conditions: in vivo, 0.5 h
Brain [31] = assay: Biodistribution in ICR mouse brain at 5 to 10 uCi, iv after 1 hr; assay type: ADME, organism-based; conditions: in vivo
Brain [32] = assay: Biodistribution in ICR mouse brain at 5 to 10 uCi, iv after 2 hrs; assay type: ADME, organism-based; conditions: in vivo
Thyroid gland [33] = assay: Biodistribution in ICR mouse thyroid at 5 to 10 uCi, iv after 2 mins; assay type: ADME, organism-based; conditions: in vivo
Thyroid gland [34] = assay: Biodistribution in ICR mouse thyroid at 5 to 10 uCi, iv after 30 mins; assay type: ADME, organism-based; conditions: in vivo, 0.5 h
Thyroid gland [35] = assay: Biodistribution in ICR mouse thyroid at 5 to 10 uCi, iv after 1 hr; assay type: ADME, organism-based; conditions: in vivo
Thyroid gland [36] = assay: Biodistribution in ICR mouse thyroid at 5 to 10 uCi, iv after 2 hrs; assay type: ADME, organism-based; conditions: in vivo
Brain [37] = assay: Ratio of drug distribution in brain after 2 mins to 30 mins in ICR mouse at 5 to 10 uCi, iv; assay type: ADME, organism-based; conditions: in vivo
[38] = Partition coefficient, log P at pH 7.4; assay type: physicochemical; conditions: octanol/water
Blood [39] = assay: Biodistribution in ICR mouse blood at 5 to 10 uCi, iv after 2 mins; assay type: ADME, organism-based; conditions: in vivo
Blood [40] = assay: Biodistribution in ICR mouse blood at 5 to 10 uCi, iv after 30 mins; assay type: ADME, organism-based; conditions: in vivo, 0.5 h
Blood [41] = assay: Biodistribution in ICR mouse blood at 5 to 10 uCi, iv after 1 hr; assay type: ADME, organism-based; conditions: in vivo
Blood [42] = assay: Biodistribution in ICR mouse blood at 5 to 10 uCi, iv after 2 hrs; assay type: ADME, organism-based; conditions: in vivo

Work on `CN(C)c1ccc(/C=C/c2cnc(OCCO)c([125I])c2)cc1` yielded a Drug uptake (Heart [1]) of 10.2 % ID/g, a Drug uptake (Heart [2]) of 1.93 % ID/g and a Drug uptake (Heart [3]) of 1.12 % ID/g. The Drug uptake (Kidney [4]) was 1.48 % ID/g, the Drug uptake (Spleen [5]) was 4.4 % ID/g and the Drug uptake (Spleen [6]) was 1.94 % ID/g. For the same compound, the Drug uptake (Heart [7]) was 0.62 % ID/g, the Drug uptake (Muscle tissue [8]) was 0.71 % ID/g and the Drug uptake (Muscle tissue [9]) was 1.05 % ID/g. The Drug uptake (Muscle tissue [10]) was 0.55 % ID/g, the Drug uptake (Muscle tissue [11]) was 0.22 % ID/g and the Drug uptake (Lung [12]) was 9.41 % ID/g. For the same compound, the Drug uptake (Lung [13]) was 3.02 % ID/g, the Drug uptake (Lung [14]) was 1.98 % ID/g and the Drug uptake (Lung [15]) was 1 % ID/g. It also gave a Drug uptake (Kidney [16]) of 14.3 % ID/g, a Drug uptake (Kidney [17]) of 4.19 % ID/g and a Drug uptake (Kidney [18]) of 2.49 % ID/g. It also gave a Drug uptake (Spleen [19]) of 1.32 % ID/g, a Drug uptake (Spleen [20]) of 0.8 % ID/g and a Drug uptake (Liver [21]) of 19.1 % ID/g. It also gave a Drug uptake (Liver [22]) of 12.4 % ID/g, a Drug uptake (Liver [23]) of 6.22 % ID/g and a Drug uptake (Liver [24]) of 4.87 % ID/g. It also gave a Drug uptake (Zone of skin [25]) of 0.46 % ID/g, a Drug uptake (Zone of skin [26]) of 1.18 % ID/g and a Drug uptake (Zone of skin [27]) of 1.16 % ID/g. It also gave a Drug uptake (Zone of skin [28]) of 0.4 % ID/g, a Drug uptake (Brain [29]) of 5.43 % ID/g and a Drug uptake (Brain [30]) of 3.56 % ID/g. It also gave a Drug uptake (Brain [31]) of 1.32 % ID/g, a Drug uptake (Brain [32]) of 0.46 % ID/g and a Drug uptake (Thyroid gland [33]) of 4.15 % ID/g. The Drug uptake (Thyroid gland [34]) was 11.2 % ID/g, the Drug uptake (Thyroid gland [35]) was 59.1 % ID/g and the Drug uptake (Thyroid gland [36]) was 24.8 % ID/g. For the same compound, the Ratio (Brain [37]) was 1.52, the logD [38] was 2.2 and the Drug uptake (Blood [39]) was 2.71 % ID/g. The Drug uptake (Blood [40]) was 2.24 % ID/g, the Drug uptake (Blood [41]) was 2.18 % ID/g and the Drug uptake (Blood [42]) was 1.01 % ID/g.
